Source: ChEMBL document CHEMBL1153038, “Eusynstyelamides A, B, and C, nNOS inhibitors, from the ascidian Eusynstyela latericius” (J Nat Prod, 2009)

Assays:
HCT-116 = test: Cytotoxicity against human HCT116 cells; assay type: functional, cell-based
NCI-H460 = test: Cytotoxicity against human H460 cells upto […] by SRB assay; assay type: functional, cell-based
Nitric oxide synthase 1 = Nitric oxide synthase 1 (Rattus norvegicus, UniProt P29476); test: Inhibition of rat cerebella nNOS synthase assessed as [3H]arginine to [3H]citrulline conversion by microbeta scintillation counting
Nitric oxide synthase 1, sequence (P29476 whole entry): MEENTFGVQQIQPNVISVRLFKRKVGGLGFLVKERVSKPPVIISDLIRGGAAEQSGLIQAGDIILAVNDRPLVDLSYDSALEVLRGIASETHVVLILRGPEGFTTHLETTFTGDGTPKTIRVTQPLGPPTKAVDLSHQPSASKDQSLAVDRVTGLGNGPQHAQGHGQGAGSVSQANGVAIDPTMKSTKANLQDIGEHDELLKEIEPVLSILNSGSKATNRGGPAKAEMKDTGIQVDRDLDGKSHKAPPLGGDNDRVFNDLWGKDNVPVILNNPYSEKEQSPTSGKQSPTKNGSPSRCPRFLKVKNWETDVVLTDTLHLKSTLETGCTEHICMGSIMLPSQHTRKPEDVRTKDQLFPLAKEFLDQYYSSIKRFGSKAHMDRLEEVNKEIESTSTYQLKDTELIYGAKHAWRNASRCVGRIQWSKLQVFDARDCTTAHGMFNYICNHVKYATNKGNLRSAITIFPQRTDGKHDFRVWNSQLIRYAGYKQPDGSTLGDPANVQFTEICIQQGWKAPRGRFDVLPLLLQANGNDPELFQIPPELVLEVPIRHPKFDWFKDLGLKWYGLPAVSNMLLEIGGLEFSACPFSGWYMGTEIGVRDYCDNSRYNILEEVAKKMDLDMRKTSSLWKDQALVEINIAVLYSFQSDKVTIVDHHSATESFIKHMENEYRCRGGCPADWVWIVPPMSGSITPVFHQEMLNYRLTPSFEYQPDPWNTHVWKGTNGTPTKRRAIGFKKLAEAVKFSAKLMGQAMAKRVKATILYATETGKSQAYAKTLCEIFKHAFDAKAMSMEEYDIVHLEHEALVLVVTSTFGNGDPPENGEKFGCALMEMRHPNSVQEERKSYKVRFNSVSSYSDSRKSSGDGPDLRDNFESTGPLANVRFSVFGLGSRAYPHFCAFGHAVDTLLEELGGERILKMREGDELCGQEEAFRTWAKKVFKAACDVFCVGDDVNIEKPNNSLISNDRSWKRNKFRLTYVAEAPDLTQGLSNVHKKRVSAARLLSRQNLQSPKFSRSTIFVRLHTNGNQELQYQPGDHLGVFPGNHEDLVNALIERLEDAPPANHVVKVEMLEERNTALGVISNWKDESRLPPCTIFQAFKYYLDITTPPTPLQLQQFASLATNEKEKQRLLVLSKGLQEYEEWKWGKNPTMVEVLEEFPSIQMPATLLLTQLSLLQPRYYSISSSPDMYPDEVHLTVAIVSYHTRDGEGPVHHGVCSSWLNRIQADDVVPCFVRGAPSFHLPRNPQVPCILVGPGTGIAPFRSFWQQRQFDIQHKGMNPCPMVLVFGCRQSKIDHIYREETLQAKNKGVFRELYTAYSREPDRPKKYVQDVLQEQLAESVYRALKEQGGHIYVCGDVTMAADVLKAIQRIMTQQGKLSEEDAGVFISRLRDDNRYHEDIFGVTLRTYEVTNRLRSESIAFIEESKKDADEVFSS

SF-268 = test: Cytotoxicity against human SF268 cells upto […] by SRB assay; assay type: functional, cell-based
MCF7 = test: Cytotoxicity against human MCF7 cells upto […] by SRB assay; assay type: functional, cell-based
Staphylococcus aureus = test: Antibacterial activity against Staphylococcus aureus after 24 hrs by microtiter dilution assay; assay type: functional, organism-based

**Q.** With `NCC(O)c1cc(O)c2nccc3c2c1Nc1ccccc1-3` (centres undefined) [STYELSAMINE A] as the compound, how does the IC50 (HCT-116) read?
**A.** Its IC50 is 1.6 µM.

**Q.** For `N=C(N)NCCCCNC(=O)C(O)(O)C(c1c[nH]c2cc(Br)ccc12)C(O)(Cc1c[nH]c2cc(Br)ccc12)C(=O)NCCCCNC(=N)N` (centres undefined) [EUSYNSTYELAMIDE], which IC50 (HCT-116) is on record?
**A.** The IC50 was 100 µM.

**Q.** With `NCCc1cc(O)c2nccc3c2c1Nc1ccccc1-3` [STYELSAMINE D] as the compound, how does the IC50 (HCT-116) read?
**A.** Its IC50 is 1.6 µM.

**Q.** For `N=C(N)NCCCCNC(=O)[C@@]1(O)[C@H](c2c[nH]c3cc(Br)ccc23)[C@@](O)(Cc2c[nH]c3cc(Br)ccc23)C(=O)N1CCCCNC(=N)N`, which Activity (NCI-H460) is on record?
**A.** Its Activity is “Not toxic”.

**Q.** What about the IC50 (Nitric oxide synthase 1) of the same compound?
**A.** Its IC50 is 4.3 µM.

**Q.** What about the Activity (SF-268) of the same compound?
**A.** Its Activity is “Not toxic”.

**Q.** What about the Activity (MCF7) of the same compound?
**A.** Its Activity is “Not toxic”.

**Q.** And the IC50 (Staphylococcus aureus)?
**A.** The IC50 was 6.5 µM.

**Q.** With `CC(=O)NCCc1cc(O)c2nccc3c2c1Nc1ccccc1-3` [STYELSAMINE B] as the compound, how does the IC50 (HCT-116) read?
**A.** The IC50 was 1.6 µM.

**Q.** `O=Cc1cc(O)c2nccc3c2c1Nc1ccccc1-3` [STYELSAMINE C] was tested. Which IC50 (HCT-116) did it give?
**A.** Its IC50 is 1.6 µM.

**Q.** Which results are given for `N=C(N)NCCCCNC(=O)[C@]1(O)[C@H](c2c[nH]c3cc(Br)ccc23)[C@@](O)(Cc2c[nH]c3cc(Br)ccc23)C(=O)N1CCCCNC(=N)N`?
**A.** Activity (NCI-H460): Not toxic; IC50 (Nitric oxide synthase 1): 41.7 µM; Activity (SF-268): Not toxic; Activity (MCF7): Not toxic; IC50 (Staphylococcus aureus): 19 µM

**Q.** Which results are given for `N=C(N)NCCCCNC(=O)[C@@]1(O)[C@H](c2c[nH]c3cc(Br)ccc23)[C@](O)(Cc2c[nH]c3cc(Br)ccc23)C(=O)N1CCCCNC(=N)N`?
**A.** Activity (NCI-H460): Not toxic; IC50 (Nitric oxide synthase 1): 5.8 µM; Activity (SF-268): Not toxic; Activity (MCF7): Not toxic
